This is an account of results in patent US8703769B2, “Use of EGFR inhibitors to prevent or treat obesity” (The University of North Carolina at Chapel Hill, priority 2005, dated 2014).

Common to all, as to type: in vivo
For test [1], the target named is T1, EGFR (Mus musculus, UniProt Q01279).
T1 construct: from tissue; host or cells: whole animal: wild-type C57BL/6J male mice
Put plainly: High fat diet with or without AG1478 for 6 months, B6 male mice (Example 3). As for the experimental part:
(§1) Diets: A base Western Diet (D12079B, Research Diets, Inc., New Brunswick, N.J., U.S.A.) having 41% fat (kcal) was used in all studies, and is designated HFD. The small molecule inhibitor AG1478 (LC Laboratories, Woburn, Mass., U.S.A.) was added to this base diet to a final concentration of […]. This diet is designated HFD+INH.
(§2) In experiments using wild-type C57BL6/J (B6) mice, male mice were housed individually and were started on the diet experiments at 8 weeks of age. In Example 2, mice were maintained on the HFD or HFD+INH for 1 month. In Example 3, mice were maintained on the HFD (n=8) or HFD+INH (n=8) for 6 months. In Example 4, all mice were placed on the HFD for 3 months; after this time, Group 1 (n=4) was placed on HFD+INH, while Group 2 (n=4) was maintained on HFD.
(§3) Clinical chemistry: Non-fasted blood glucose levels were measured at baseline and monthly using the FREESTYLE® blood glucose monitor (Abbott Laboratories, Abbott Park, Ill., U.S.A.) which was calibrated per manufacturer's instruction prior to use. All measurements were taken from 4-5 pm. At sacrifice, blood was collected by retro-orbital bleed and serum was isolated. Serum concentrations of triglycerides and total cholesterol were measured using an automatic blood chemical analyzer (Johnson & Johnson, New Brunswick, N.J., U.S.A.) by the University of North Carolina at Chapel Hill Animal Clinical Chemistry and Gene Expression Laboratories Core.
(§4) Body composition analysis: On the day of analysis, mice were weighed, anaesthetized with 2-3% isofluorane, and body composition was determined with a PIXIMUS II™ Mouse Densitometer (GE Medical Systems, distributed by Faxitron X-Ray Corporation, Wheeling, Ill., U.S.A.) using software versions 1.46 and 2.10. These measurements were taken at baseline and monthly during the diet studies. The Dual-energy X-ray absorptiometry (DEXA) method of determining body composition and body fat has been validated in lean and obese mice (Brommage (2003) J Physiol Endocrinol Metab 285: E454-459).
(§5) Statistical analysis: Results are expressed as mean+/−STD. A two-sided unpaired student's t-test was used for preliminary statistical analysis.
In order to determine if the short-term effects on weight gain due to the inhibitor action were applicable over a longer time period, the experiments of Example 2 were extended over six months.
Baseline measurements (body weights, blood glucose, and percent body fat) were taken of 2-month-old male C57 BL/6J (B6) mice which were then housed individually and randomly assigned to receive either HFD or HFD+Inhibitor A (AG 1478). Measurements were again assessed at 1, 2 and 6 months of treatment. All mice were sacrificed at month 6. At sacrifice, blood was collected for clinical chemistry. Heart, liver and fat depots were also dissected and weighed. A two-sided unpaired student's t-test was used for preliminary statistical analysis.

Test [2] addresses T1, EGFR. Briefly: Already obese B6 male mice on HFD switched to HFD+INH (Example 4). As to conditions: n=4 per group. As for the experimental part:
as §1, §2, §3, §4, §5
In order to assess whether EGFR inhibitors can effect weight loss or stasis in an already obese subject, obese mice were administered an EGFR inhibitor and body mass and chemistry measurements made over time while maintaining a HFD. Specifically, baseline measurements were taken of 2 month-old male B6 mice, which were then housed individually and placed on a HFD for 2 months. Body weights, blood glucose, and percent body fat were assessed at this time point, and mice were randomly assigned to two groups. Group 1 (Grp1) was continuously fed the HFD, while Group 2 (Grp2) was switched to the HFD+INH after the initial two months. Measurements were again assessed at 1 and 3 months after the diet switch (experimental month 3 and 5). All mice were sacrificed at month 5. At sacrifice, blood was collected for clinical chemistry and heart, liver and fat depots were dissected and weighed. A two-sided unpaired student's t-test was used for preliminary statistical analysis.

In test [3] the target is T1, EGFR. Briefly: High fat diet with or without AG1478 for about 1 month, C57BL/6 male mice (Example 2). As to conditions: for accumulation of adipose tissue (percent body fat by DEXA): C57BL/6 male mice, HFD + AG1478 (144 ppm in diet) vs HFD alone, FIGS. 9-12. The protocol: as §1, §2, §3, §4, §5
FIGS. 9-12 depict the results of C57BL/6 male mice exposed either to a high fat diet (HFD; […]) or the HFD base diet plus the EGFR small molecule inhibitor AG1478 (144 ppm) for about 1 month. The mice were approximately 6 weeks old when started on the dietary study. Male littermates were housed together, so the data are shown as the mean per cage. There is an n of […] for the mice on the HFD+inhibitor (INH), with two test groups of 6 (HFD+INH1 and HFD+INH2) and an n of 4 for the HFD cage.

Where [4] appears, read: HFD+inhibitor A vs HFD alone, six months, n=8 per group, FIG. 14.
Setting [5] is: plasma after 6 months, 7-8 mice per group, HFD+Inhibitor A vs HFD, FIG. 17.
The mark [6] stands for this setting: between treatment groups at sacrifice (month 5), FIG. 20B.
The mark [7] stands for this setting: between treatment groups, FIG. 21.

T1 sequence (Q01279 25-1210): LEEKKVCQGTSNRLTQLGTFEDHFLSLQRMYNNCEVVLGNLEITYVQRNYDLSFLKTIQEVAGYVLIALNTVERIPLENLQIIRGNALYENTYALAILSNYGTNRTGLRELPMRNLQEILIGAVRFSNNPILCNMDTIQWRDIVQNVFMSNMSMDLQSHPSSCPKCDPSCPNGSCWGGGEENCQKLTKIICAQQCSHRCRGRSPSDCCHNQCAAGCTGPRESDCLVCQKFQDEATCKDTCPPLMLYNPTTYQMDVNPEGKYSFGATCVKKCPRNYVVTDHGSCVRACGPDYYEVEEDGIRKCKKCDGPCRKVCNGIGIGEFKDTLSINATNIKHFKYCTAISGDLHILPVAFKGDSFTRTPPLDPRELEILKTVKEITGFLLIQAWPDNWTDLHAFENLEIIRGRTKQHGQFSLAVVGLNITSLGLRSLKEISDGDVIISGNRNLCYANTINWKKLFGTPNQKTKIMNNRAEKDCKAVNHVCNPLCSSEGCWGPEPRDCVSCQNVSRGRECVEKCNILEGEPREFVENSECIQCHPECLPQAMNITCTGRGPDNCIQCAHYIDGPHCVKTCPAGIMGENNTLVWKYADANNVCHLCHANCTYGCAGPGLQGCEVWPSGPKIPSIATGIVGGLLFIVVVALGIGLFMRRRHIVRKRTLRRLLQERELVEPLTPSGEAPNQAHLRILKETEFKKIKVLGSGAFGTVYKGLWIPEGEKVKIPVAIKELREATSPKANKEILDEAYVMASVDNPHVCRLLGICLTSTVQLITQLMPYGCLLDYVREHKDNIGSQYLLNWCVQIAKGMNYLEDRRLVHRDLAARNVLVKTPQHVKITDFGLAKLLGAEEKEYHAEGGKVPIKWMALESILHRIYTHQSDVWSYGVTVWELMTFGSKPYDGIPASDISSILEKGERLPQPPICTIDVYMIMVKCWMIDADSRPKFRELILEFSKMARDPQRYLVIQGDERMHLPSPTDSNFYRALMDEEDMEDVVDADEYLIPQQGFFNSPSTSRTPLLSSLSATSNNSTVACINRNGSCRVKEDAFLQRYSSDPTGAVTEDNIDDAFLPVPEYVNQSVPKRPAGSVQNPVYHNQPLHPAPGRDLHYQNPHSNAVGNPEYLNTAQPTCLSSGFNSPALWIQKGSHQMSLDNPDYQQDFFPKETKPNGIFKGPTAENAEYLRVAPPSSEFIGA

On to `COc1cc2ncnc(Nc3cccc(Cl)c3)c2cc1OC` [AG1478, 4-(3-Chloroanillino)-6,7-dimethoxyquinazoline], for which the “body weight (BW)” value in test [1] (B6 male mice, HFD+inhibitor A vs HFD alone, 6 months, n=8 per group, FIG. 13) is listed as “significantly decreased”. The “percent body fat as assessed by DEXA” value in test [1] (B6 male mice, HFD+inhibitor A vs HFD alone, 6 months, n=8 per group, p<0.001, FIG. 13) was “significantly decreased”. Also, in test [1] (setting [4]), the fat mass result is “decreased” and the lean body mass result is “no change”. In addition, in test [1] (after 6 months, HFD+Inhibitor A vs HFD, FIG. 16), the gross heart weight result is given as “no significant differences”. In test [1] (after 6 months, HFD+Inhibitor A vs HFD, p<0.02, FIG. 16), the gross liver weight result is given as “significantly reduced”. Besides, the “fat mass in the four major fat depots (intraperitoneal, intrascapular, kidney, perigonadal)” value in test [1] (dissection after 6 months, HFD+Inhibitor A vs HFD, FIG. 15) is “decreased fat mass in all four major fat depots”. Moreover, in test [1] (setting [5]), the total cholesterol level entry is “significantly lower” and the triglyceride level entry was “significantly lower”. In addition, the “percent increase in BW relative to BW at 2 months on HFD” value in test [2] (Group 2 (HFD+Inhibitor A) vs Group 1 (HFD), after 1 and 3 months on HFD+Inhibitor A, p<0.02, FIG. 18) is listed as “significantly lower”. Besides, the “percent increase in BF (H), body fat by DEXA relative to time of diet change” value in test [2] (Group 2 vs Group 1, after 3 months on HFD+Inhibitor A, p<0.02, FIG. 19) is listed as “significantly lower”. Moreover, the fat depot weights entry in test [2] (between treatment groups at sacrifice (month 5), FIG. 20A) is reported as “No significant differences”. Further, in test [2] (setting [6]), the heart weight entry was “No significant differences” and the liver weight result was “No significant differences”. For the same compound, in test [2] (setting [7]), the blood glucose level entry was “no significant differences”, the total cholesterol level result is “no significant differences” and the triglyceride level entry is “no significant differences”. Besides, the “accumulation of adipose tissue (percent body fat by DEXA)” value in test [3] (about 1 month) is on record as “reduction in adipose tissue accumulation”. Also, the “accumulation of adipose tissue (percent body fat by DEXA)” value in test [3] (about 1 month, listed as AG 1478) is recorded as “successfully inhibited the accumulation of adipose tissue”. In addition, the body weight gain result in test [3] (HFD+INH vs HFD control mice, one month, FIG. 11) is listed as “gained less body weight”. The “food consumption per mouse per day” value in test [3] (HFD+INH vs HFD, about 1 month, estimated from total food remaining per day, FIG. 10) is given as “no significant difference”.
